By pIC50 is commonly meant the negative decadic logarithm of the IC50, by convention in mol/L. Read a high pIC50 as a small IC50.

pIC50: −log10 of the molar value. Where “and” joins values, the source holds several entries; their conditions need not be identical. Equal values may be shown once. A value given as a limit tells only on which side of the number the result lay.

For this experiment, the target named is T1, CHK1 (Homo sapiens, UniProt O14757).
T1 sequence (O14757 1-476): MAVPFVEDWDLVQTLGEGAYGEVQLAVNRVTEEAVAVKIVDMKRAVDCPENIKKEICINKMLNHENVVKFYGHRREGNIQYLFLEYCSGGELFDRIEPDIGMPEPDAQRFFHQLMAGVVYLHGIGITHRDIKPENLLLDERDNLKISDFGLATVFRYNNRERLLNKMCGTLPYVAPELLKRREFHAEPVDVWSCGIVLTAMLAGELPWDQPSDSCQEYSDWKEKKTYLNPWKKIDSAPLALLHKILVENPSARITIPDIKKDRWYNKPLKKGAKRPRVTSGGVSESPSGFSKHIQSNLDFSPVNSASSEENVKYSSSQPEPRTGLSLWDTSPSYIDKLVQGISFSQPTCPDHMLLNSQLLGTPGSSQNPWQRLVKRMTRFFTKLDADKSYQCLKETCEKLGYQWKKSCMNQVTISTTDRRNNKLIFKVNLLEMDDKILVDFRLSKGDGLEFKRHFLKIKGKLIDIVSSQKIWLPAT
Briefly: CHK1 kinase function inhibition assay (DELFIA, phosphorylation of a CDC25C peptide). To be noted: CHK1 1 nM, ATP 30 μM, 30 minutes at room temperature. Type of experiment: biochemical. In outline: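 Phosphorylation of a CDC25C peptide detected by DELFIA with a phospho-specific antibody. Kinase reaction ran 30 min at room temperature, was stopped with EDTA buffer, then captured on neutravidin-coated plates for 1 h before time-resolved fluorescence read-out with enhancement solution.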
The compound `NCCCCNc1cc(Nc2cnccn2)ncn1` [Compound Z-006, N-(4-Aminobutyl)-N′-pyrazin-2-ylpyrimidine-4,6-diamine] gave a pIC50 of 5.00 to 6.00.

With `N#Cc1cnc(Nc2cc(N(CCN)CC(N)=O)ncn2)cn1` [Compound Z-009, 2-((2-Aminoethyl)(6-(5-cyanopyrazin-2-ylamino)pyrimidin-4-yl)amino)acetamide], the pIC50 is 5.00 to 6.00.

With `N#Cc1cnc(Nc2cc(NCCC[C@H](N)C(=O)Nc3ccccc3)ncn2)cn1` [Compound Z-010, (S)-2-Amino-5-(6-(5-cyanopyrazin-2-ylamino)pyrimidin-4-ylamino)-N-phenylpentanamide], the pIC50 is ≥ 6.00 and 6.00 to 7.00.

Consider `N#Cc1cnc(Nc2cc(NCCC[C@H](N)C(=O)NCc3ccccc3)ncn2)cn1` [Compound Z-011, (S)-2-Amino-N-benzyl-5-(6-(5-cyanopyrazin-2-ylamino)pyrimidin-4-ylamino)pentanamide], for which the pIC50 is ≥ 6.00 and 6.00 to 7.00.

With `N#Cc1cnc(Nc2cc(NC3CCNCC3)ncn2)cn1` [Compound Z-012, 5-(6-(Piperidin-4-ylamino)pyrimidin-4-ylamino)pyrazine-2-carbonitrile], the pIC50 was ≥ 6.00 and 6.00 to 7.00.

For `N#Cc1cnc(Nc2cc(N[C@H]3CCCNC3)ncn2)cn1` [Compound Z-013, (S)-5-(6-(Piperidin-3-ylamino)pyrimidin-4-ylamino)pyrazine-2-carbonitrile], the pIC50 is 5.00 to 6.00.

As for `N#Cc1cnc(Nc2cc(N3CCOC(CN)C3)ncn2)cn1` (centres unmarked) [Compound Z-014, 5-(6-(2-(Aminomethyl)morpholino)pyrimidin-4-ylamino)pyrazine-2-carbonitrile], the pIC50 is 5.00 to 6.00.

The compound `N#Cc1cnc(Nc2cc(N3CCC(C(N)c4ccccc4)CC3)ncn2)cn1` (centres unmarked) [Compound Z-015, 5-(6-(4-(Amino(phenyl)methyl)piperidin-1-yl)pyrimidin-4-ylamino)pyrazine-2-carbonitrile] had a pIC50 of 5.00 to 6.00.

Turning to `N#Cc1cnc(Nc2cc(NCCCCN)ncn2)cn1` [Compound Z-016, 5-(6-(4-Aminobutylamino)pyrimidin-4-ylamino)pyrazine-2-carbonitrile], the pIC50 is ≥ 6.00 and 6.22 and 6.00 to 7.00.

Consider `N#Cc1cnc(Nc2cc(N3CCNCC3)ncn2)cn1` [Compound Z-018, 5-(6-(piperazin-1-yl)pyrimidin-4-ylamino)pyrazine-2-carbonitrile], for which the negative-log IC50 (pIC50) was 5.00 to 6.00.

Turning to `N#Cc1cnc(Nc2cc(NCC3CCCNC3)ncn2)cn1` (centres unmarked) [Compound Z-022, 5-(6-(Piperidin-3-ylmethylamino)pyrimidin-4-ylamino)pyrazine-2-carbonitrile], the pIC50 was ≥ 6.00 and 6.00 to 7.00.

In turn, `N#Cc1cnc(Nc2cc(N[C@H]3CCNC3)ncn2)cn1` [Compound Z-024, (S)-5-(6-(Pyrrolidin-3-ylamino)pyrimidin-4-ylamino)pyrazine-2-carbonitrile] showed a pIC50 of 5.00 to 6.00.

As to `N#Cc1cnc(Nc2cc(NCCC[C@@H](N)C(=O)Nc3ccccc3)ncn2)cn1` [Compound Z-025, (R)-2-Amino-5-(6-(5-cyanopyrazin-2-ylamino)pyrimidin-4-ylamino)-N-phenylpentanamide], the pIC50 was ≥ 6.00 and 6.00 to 7.00.

Turning to `N#Cc1cnc(Nc2cc(NCC[C@H](N)C(=O)Nc3ccccc3)ncn2)cn1` [Compound Z-026, (S)-2-Amino-4-(6-(5-cyanopyrazin-2-ylamino)pyrimidin-4-ylamino)-N-phenylbutanamide], the pIC50 is ≥ 6.00 and 6.00 to 7.00.

As to `CN1C2CCC1CC(Nc1cc(Nc3cnc(C#N)cn3)ncn1)C2` [Compound Z-027, 5-(6-((1R,3s,5S)-8-Methyl-8-azabicyclo[3.2.1]octan-3-ylamino)pyrimidin-4-ylamino)pyrazine-2-carbonitrile], the pIC50 was ≥ 7.00.

`CC1(CNc2cc(Nc3cnc(C#N)cn3)ncn2)CCNCC1` [Compound Z-028, 5-(6-((4-Methylpiperidin-4-yl)methylamino)pyrimidin-4-ylamino)pyrazine-2-carbonitrile] showed a pIC50 of 5.00 to 6.00.

For `N#Cc1cnc(Nc2cc(NCCC3CCNCC3)ncn2)cn1` [Compound Z-029, 5-(6-(2-(Piperidin-4-yl)ethylamino)pyrimidin-4-ylamino)pyrazine-2-carbonitrile], the pIC50 is ≥ 6.00 and 6.00 to 7.00.

Turning to `CN(CC1CCNCC1)c1cc(Nc2cnc(C#N)cn2)ncn1` [Compound Z-031, 5-(6-(Methyl(piperidin-4-ylmethyl)amino)pyrimidin-4-ylamino)pyrazine-2-carbonitrile], the pIC50 is 5.00 to 6.00.

Regarding `CC(Nc1cc(Nc2cnc(C#N)cn2)ncn1)C1CCNCC1` (centres unmarked) [Compound Z-032, 5-(6-(1-(Piperidin-4-yl)ethylamino)pyrimidin-4-ylamino)pyrazine-2-carbonitrile], the pIC50 is 5.00 to 6.00.

`N#Cc1cnc(Nc2cc(N[C@H]3CC[C@H](O)CC3)ncn2)cn1` [Compound Z-038, 5-(6-((1r,4r)-4-Hydroxycyclohexylamino)pyrimidin-4-ylamino)pyrazine-2-carbonitrile]: the negative logarithm of the IC50 (pIC50) was 5.00 to 6.00.

For `CC(C)(CO)Nc1cc(Nc2cnc(C#N)cn2)ncn1` [Compound Z-039, 5-(6-(1-Hydroxy-2-methylpropan-2-ylamino)pyrimidin-4-ylamino)pyrazine-2-carbonitrile], the pIC50 is ≥ 6.00 and 6.00 to 7.00.

In the case of `N#Cc1cnc(Nc2cc(NCCCCO)ncn2)cn1` [Compound Z-041, 5-(6-(4-Hydroxybutylamino)pyrimidin-4-ylamino)pyrazine-2-carbonitrile], the pIC50 is 5.00 to 6.00.

As to `COc1nc(Nc2cc(NCC3CCNCC3)ncn2)cnc1C#N` [Compound Z-046, 3-Methoxy-5-(6-(piperidin-4-ylmethylamino)pyrimidin-4-ylamino)-pyrazine-2-carbonitrile], the pIC50 was 5.00 to 6.00.

Values taken from patent US8367658B2, “Pyrazin-2-yl-pyridin-2-yl-amine and pyrazin-2-yl-pyrimidin-4-yl-amine compounds and their use” (Cancer Research Technology Limited, priority 2007, dated 2013).
